The source of these data is patent publication US20240254115A1 (ACONDICIONAMIENTO TARRASENSE, priority 2021, published 2024).

One assay has as its target T1, human σ2/TMEM97 receptor (Homo sapiens, UniProt Q5BJF2).
T1 construct: expressed in transfected cells; host or cells: HEK-293
Nature of the assay: Binding assay to human σ2/TMEM97 receptor. To be noted: transfected HEK-293 membranes, 10 nM [3H]-DTG, 25° C. 120 minutes; + may also stand for 1-50% inhibition at 1 or 10 μM; read-out: Binding σ-2 Ki. The gist of the method:
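Membranes from transfected HEK-293 cells (15 µg) were incubated with 10 nM [3H]-DTG in 50 mM Tris-HCl pH 8.0 for 120 min at 25 °C, with 10 µM haloperidol defining non-specific binding. Filtration and scintillation counting followed. Compounds tested as % inhibition at 1 or 10 µM, or at five concentrations for Ki.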

Another assay concerns the target T2, human σ1 receptor (Homo sapiens, UniProt Q99720).
T2 construct: expressed in transfected cells; host or cells: HEK-293
Briefly: Human σ1 receptor radioligand assay. To be noted: transfected HEK-293 membranes, 5 nM [3H](+)-pentazocine, 37° C. 120 minutes; + may also stand for 1-50% inhibition at 1 or 10 μM; read-out: Binding σ-1 Ki. The procedure, abridged: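 Membranes (7 μg) were incubated with 5 nM [3H](+)-pentazocine in 50 mM Tris-HCl pH 8 for 120 min at 37° C. Non-specific binding was defined with 10 μM haloperidol. Values are % inhibition at 1 or 10 μM or Ki from five concentrations, read by filtration and scintillation counting.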

By Ki is commonly meant the dissociation constant of the complex between target and ligand, obtained from inhibition or displacement.

T2 sequence (Q99720 whole entry): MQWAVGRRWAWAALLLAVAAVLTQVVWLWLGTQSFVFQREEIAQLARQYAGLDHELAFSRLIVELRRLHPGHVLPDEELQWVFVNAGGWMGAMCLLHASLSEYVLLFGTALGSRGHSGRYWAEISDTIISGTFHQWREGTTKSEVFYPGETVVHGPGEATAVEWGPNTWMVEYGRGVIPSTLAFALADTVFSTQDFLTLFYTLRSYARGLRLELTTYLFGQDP
T1 sequence (Q5BJF2 whole entry): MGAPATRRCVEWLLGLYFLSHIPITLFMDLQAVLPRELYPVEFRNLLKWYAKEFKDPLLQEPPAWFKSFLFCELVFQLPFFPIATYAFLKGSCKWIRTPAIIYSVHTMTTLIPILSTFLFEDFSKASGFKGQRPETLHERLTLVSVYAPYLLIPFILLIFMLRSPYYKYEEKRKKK

`CN(CCC(C)(C)C)[C@H]1CC[C@H](NS(=O)(=O)c2ccc(N3CCOCC3)nc2)CC1` [Example 89, N-((1r,4r)-4-((3,3-Dimethylbutyl)(methyl)amino)cyclo-hexyl)-6-morpholinopyridine-3-sulfonamide]: the Ki on human σ2/TMEM97 receptor is < 100 nM; on human σ1 receptor, 500 to 1000 nM.
Take `O=S(=O)(c1ccc(N2CCC(F)(F)CC2)nc1)N1CCC2(CCCN(CC3CCOCC3)C2)CC1` [Example 84, 9-((6-(4,4-Difluoropiperidin-1-yl)pyridin-3-yl)sulfonyl)-2-((tetrahydro-2H-pyran-4-yl)methyl)-2,9-diazaspiro[5.5]undecane]: the Ki on human σ2/TMEM97 receptor is 100 to 500 nM; at human σ1 receptor, < 100 nM.
Taken in the same sequence, the figures for `CC(C)(C)CCN1CCCC2(CCN(S(=O)(=O)c3ccc(N4CCOC4=O)nc3)CC2)C1` [Example 137, 3-(5-((2-(3,3-Dimethylbutyl)-2,9-diazaspiro[5.5]undecan-9-yl)sulfonyl)pyridin-2-yl)oxazolidin-2-one] were < 100 nM and < 100 nM.
For `CC(C)(C)CCN1CCC2(CC1)CCN(S(=O)(=O)c1ccc(N3CCC(F)(F)CC3)nc1)C2` [Example 80, 2-((6-(4,4-Difluoropiperidin-1-yl)pyridin-3-yl)sulfonyl)-8-(3,3-dimethylbutyl)-2,8-diazaspiro[4.5]decane], the Ki on human σ2/TMEM97 receptor and on human σ1 receptor was < 100 nM in each case.
Regarding `CN(CCc1ccccc1)C1CCN(S(=O)(=O)c2ccc(N3CCOCC3)nc2)CC1` [Example 15, N-Methyl-1-((6-morpholinopyridin-3-yl)sulfonyl)-N-phenethylpiperidin-4-amine], the Ki on human σ2/TMEM97 receptor was 100 to 500 nM; at human σ1 receptor, > 1000 nM.
Consider `O=S(=O)(NC1CC2(CCN(Cc3ccccc3)CC2)C1)c1ccc(N2CCOCC2)nc1` [Example 46, N-(7-Benzyl-7-azaspiro[3.5]nonan-2-yl)-6-morpholinopyridine-3-sulfonamide], for which the inhibitory constant (Ki) was 100 to 500 nM at human σ2/TMEM97 receptor and > 1000 nM at human σ1 receptor.
For `O=S(=O)(c1ccc(N2CCC(F)(F)CC2)nc1)N1CCCC2(CCN(CC3CCOCC3)CC2)C1` [Example 101, 2-((6-(4,4-Difluoropiperidin-1-yl)pyridin-3-yl)sulfonyl)-9-((tetrahydro-2H-pyran-4-yl)methyl)-2,9-diazaspiro[5.5]undecane], in that order: < 100 nM and < 100 nM.
Taken in the same sequence, the figures for `CC(C)(C)CCN1CCC2(CC1)CCN(S(=O)(=O)c1ccc(N3CCOCC3)nc1)CC2` [Example 29, 4-(5-((9-(3,3-Dimethylbutyl)-3,9-diazaspiro[5.5]undecan-3-yl)sulfonyl)pyridin-2-yl)morpholine] were < 100 nM and 100 to 500 nM.
For the molecule `CN(Cc1ccccc1)[C@H]1CC[C@H](NS(=O)(=O)c2ccc(N3CCOCC3)nc2)CC1` [Example 18, N-((1r,4r)-4-(Benzyl(methyl)amino)cyclohexyl)-6-morpholinopyridine-3-sulfonamide], the Ki on human σ2/TMEM97 receptor was < 100 nM; on human σ1 receptor, > 1000 nM.
For `CN(Cc1cc(F)ccc1F)C1CCN(S(=O)(=O)c2ccc(N3CCC(F)(F)CC3)nc2)CC1` [Example 174, N-(2,5-Difluorobenzyl)-1-((6-(4,4-difluoropiperidin-1-yl)pyridin-3-yl)sulfonyl)-N-methylpiperidin-4-amine], in that order: 100 to 500 nM and 100 to 500 nM.
Take `CN(CC(C)(C)C)C1CCN(S(=O)(=O)c2ccc(N3CCOC3=O)nc2)CC1` [Example 124, 3-(5-((4-(Methyl(neopentyl)amino)pi-peridin-1-yl)sulfonyl)pyridin-2-yl)oxazolidin-2-one]: the inhibition constant (Ki) is > 1000 nM at human σ2/TMEM97 receptor and 100 to 500 nM on human σ1 receptor.
For `O=S(=O)(N[C@H]1CCN(Cc2ccc(F)cc2)C1)c1ccc(N2CCOCC2)nc1` [Example 41, (S)-N-(1-(4-Fluorobenzyl)pyrrolidin-3-yl)-6-morpholinopyridine-3-sulfonamide], in that order: > 1000 nM and < 100 nM.
For `CC(C)(C)CCN1CCCC2(CCN(S(=O)(=O)c3ccc(N4CCCC4=O)nc3)CC2)C1` [Example 136, 1-(5-((2-(3,3-Dimethylbutyl)-2,9-diazaspiro[5.5]undecan-9-yl)sulfonyl)pyridin-2-yl)pyrrolidin-2-one], in that order: < 100 nM and < 100 nM.
On to `N#Cc1cccc(CN2CCC(NS(=O)(=O)c3ccc(N4CCOCC4)nc3)CC2)c1` [Example 9, N-(1-(3-Cyanobenzyl)piperidin-4-yl)-6-morpholinopyridine-3-sulfonamide], for which the Ki on human σ2/TMEM97 receptor is > 1000 nM; on human σ1 receptor it was 500 to 1000 nM.
`CC(C)(C)CN1CCC2(CC1)CCN(S(=O)(=O)c1ccc(N3CCOC3=O)nc1)CC2` [Example 143, 3-(5-((9-Neopentyl-3,9-diazaspiro[5.5]undecan-3-yl)sulfonyl)pyridin-2-yl)oxazolidin-2-one]: the Ki is < 100 nM on human σ2/TMEM97 receptor and > 1000 nM on human σ1 receptor.
Take `CN(Cc1ccc(C#N)cc1F)C1CCN(S(=O)(=O)c2ccc(N3CCC(F)(F)CC3)nc2)CC1` [Example 171, 4-(((1-((6-(4,4-Difluoropiperidin-1-yl)pyridin-3-yl)sulfonyl)piperidin-4-yl)(methyl)amino)methyl)-3-fluorobenzonitrile]: the Ki on human σ2/TMEM97 receptor was < 100 nM; at human σ1 receptor it was > 1000 nM.
For `O=S(=O)(c1ccc(N2CCOCC2)nc1)N1CCC2(CCN(Cc3ccccc3)C2)CC1` [Example 13, 4-(5-((2-Benzyl-2,8-diazaspiro[4.5]decan-8-yl)sulfonyl)pyridin-2-yl)morpholine], the Ki on human σ2/TMEM97 receptor was 100 to 500 nM; on human σ1 receptor it was > 1000 nM.
For `CC(C)(C)CCN1CCC2(CCCN(S(=O)(=O)c3ccc(C4CCOCC4)nc3)C2)CC1` [Example 116, 9-(3,3-Dimethylbutyl)-2-((6-(tetrahydro-2H-pyran-4-yl)pyridin-3-yl)sulfonyl)-2,9-diazaspiro[5.5]undecane], in that order: < 100 nM and < 100 nM.
Taken in the same sequence, the figures for `CN(Cc1ccc(F)c(C#N)c1)[C@H]1CC[C@H](NS(=O)(=O)c2ccc(N3CCOCC3)nc2)CC1` [Example 58, N-((1r,4r)-4-((3-Cyano-4-Fluorobenzyl)(methyl)amino)cyclo-hexyl)-6-morpholinopyridine-3-sulfonamide] were < 100 nM and > 1000 nM.
Turning to `CN(Cc1ccccc1)[C@H]1CC[C@H](NS(=O)(=O)c2ccc(N3CCOC3=O)nc2)CC1` [Example 167, N-((1 r,4r)-4-(Benzyl(methyl)amino)cyclohexyl)-6-(2-oxooxazolidin-3-yl)pyridine-3-sulfonamide], the Ki at human σ2/TMEM97 receptor was 100 to 500 nM; at human σ1 receptor, > 1000 nM.
Taken in the same sequence, the figures for `CN(Cc1ccc(C#N)c(F)c1)C1CCN(S(=O)(=O)c2ccc(N3CCC(F)(F)CC3)nc2)CC1` [Example 173, 4-(((1-((6-(4,4-Difluoropiperidin-1-yl)pyridin-3-yl)sulfonyl)piperidin-4-yl)(methyl)amino)methyl)-2-fluorobenzonitrile] were < 100 nM and > 1000 nM.
Regarding `CNc1ccc(S(=O)(=O)N2CCCC3(CCN(CCC(C)(C)C)CC3)C2)cn1` [Example 94, 5-((9-(3,3-Dimethylbutyl)-2,9-diazaspiro[5.5]undecan-2-yl)sulfonyl)-N-methylpyridin-2-amine], the Ki is < 100 nM on human σ2/TMEM97 receptor and 100 to 500 nM on human σ1 receptor.
In the case of `O=S(=O)(N[C@@H]1CCN(Cc2ccccc2)C1)c1ccc(N2CCOCC2)nc1` [Example 3, (R)-N-(1-Benzylpyrrolidin-3-yl)-6-morpholinopyridine-3-sulfonamide], the Ki at human σ2/TMEM97 receptor is > 1000 nM; on human σ1 receptor, < 100 nM.
For `CC(C)(C)CCN1CCC2(CC1)CCN(S(=O)(=O)c1cnc(N3CCCC3=O)c(F)c1)CC2` [Example 141, 1-(5-((9-(3,3-Dimethylbutyl)-3,9-diazaspiro[5.5]undecan-3-yl)sulfonyl)-3-fluoropyridin-2-yl)pyrrolidin-2-one], in that order: < 100 nM and 100 to 500 nM.
Take `O=S(=O)(c1ccc(N2CCC(F)(F)CC2)nc1)N1CCC(NCc2ccccc2)CC1` [Example 170]: the Ki is < 100 nM at human σ2/TMEM97 receptor and > 1000 nM at human σ1 receptor.
As for `CC(C)(C)CCN1CCCC2(CCN(S(=O)(=O)c3ccc(N4CCOC4=O)cn3)CC2)C1` [Example 154, 3-(6-((2-(3,3-Dimethylbutyl)-2,9-diazaspiro[5.5]undecan-9-yl)sulfonyl)pyridin-3-yl)oxazolidin-2-one], the Ki on human σ2/TMEM97 receptor and at human σ1 receptor was < 100 nM in each case.
Consider `CN(Cc1ccccc1)C1CCN(S(=O)(=O)c2ccc(N3CCCC3=O)nc2)CC1` [Example 148, 1-(5-((4-(Benzyl(methyl)ami-no)piperidin-1-yl)sulfonyl)pyridin-2-yl)pyrrolidin-2-one], for which the Ki on human σ2/TMEM97 receptor was < 100 nM; on human σ1 receptor it was 100 to 500 nM.
For `O=S(=O)(c1ccc(N2CCOCC2)nc1)N1CCCC2(CCN(Cc3ccccc3)CC2)C1` [Example 61, 4-(5-((9-Benzyl-2,9-diazaspiro[5.5]undecan-2-yl)sulfonyl)pyridin-2-yl)morpholine], in that order: < 100 nM and 100 to 500 nM.
Regarding `CC(C)(C)CCN1CCC2(CC1)CCN(S(=O)(=O)c1ccc(C(F)(F)F)nc1)C2` [Example 67, 8-(3,3-Dimethylbutyl)-2-((6-(trifluoromethyl)pyridin-3-yl)sulfonyl)-2,8-diazaspiro[4.5]decane], the Ki at human σ2/TMEM97 receptor and at human σ1 receptor was < 100 nM in each case.
